Results: patent US6420532B1, “Method of obtaining compositions comprising Y2 specific compounds” (Synaptic Pharmaceutical Corporation, priority 1994, dated 2002)

Columns and labels:
PYY-preferring receptor = settings: rat small intestine; cited from earlier work
human Y2 receptor [1] = molecular target: T1, human Y2 receptor (Homo sapiens, UniProt P49146); settings: stably transfected NIH-3T3 cells
T1 sequence (P49146 1-381): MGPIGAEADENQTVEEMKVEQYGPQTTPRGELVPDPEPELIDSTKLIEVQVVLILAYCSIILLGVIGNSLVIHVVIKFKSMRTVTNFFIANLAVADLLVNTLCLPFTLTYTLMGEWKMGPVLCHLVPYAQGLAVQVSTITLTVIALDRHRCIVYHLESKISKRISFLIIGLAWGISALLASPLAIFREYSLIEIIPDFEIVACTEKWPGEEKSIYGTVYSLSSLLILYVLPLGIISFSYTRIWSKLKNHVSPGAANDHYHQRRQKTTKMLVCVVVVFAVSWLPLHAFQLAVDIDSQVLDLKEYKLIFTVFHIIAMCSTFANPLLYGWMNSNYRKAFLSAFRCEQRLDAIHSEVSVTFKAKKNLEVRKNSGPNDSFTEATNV

human Y2 receptor [2] = molecular target: T1, human Y2 receptor; test: Inhibition of forskolin-stimulated cAMP accumulation (radioimmunoassay), stably transfected 293 cells; format: cell-based; design: expressed in transfected cells; settings: maximum inhibition of cAMP accumulation relative to that produced by human NPY

Substance | higher affinity for PYY than for NPY (PYY-preferring receptor) | decrease of forskolin-stimulated cAMP accumulation (human Y2 receptor [1]) | Function Emax (human Y2 receptor [2])
PYY: PYY, species not stated (Table 2, b7) [peptide YY] | 5-10 fold | – | –
Neuropeptide Y [NPY, human] | – | 50% | 100%
